What was measured:
[1] = tested on: SH-SY5Y human neuroblastoma cells; experiment: Confocal microscopy of uptake and intracellular localization; assay type: cell-based; details: for intracellular HF488 fluorescence (uptake) after 30 min: 500 nM monomeric peptide in medium, colocalized with endocytosis marker FM 4–64; for intracellular HF488 fluorescence (uptake) after 30 min / intracellular localization after 24 hr: confocal fluorescence; for intracellular localization after 24 hr: 500 nM peptide 24 hr, then 1 hr with 100 nM LysoTracker red; for uptake at 4°C: 1 hr at 4°C (inhibits endocytosis) compared with 37°C, cells washed before confocal imaging
Description: Aβ peptides have been reported to be internalized into a variety of cell types, including neurons ([Burdick et al., 1997; Friedrich et al., 2010; Hu et al., 2009; Kaminski Schierle et al., 2011b; McGuire et al., 2012]). To characterize the uptake and intracellular localization of the peptides under the conditions used in our study, we added aliquots of monomeric ^HF488Aβ(1–40) or ^HF488Aβ(1–42) to cultures of SH-SY5Y human neuroblastoma cells to give a total peptide concentration of 500 nM in the cellular medium. […] The neuronal cells were also incubated for 1 hr at 37°C and at 4°C to compare uptake under conditions that, respectively, permit or inhibit endocytosis.
Human neuroblastoma cells (SH-SY5Y) were grown in 1:1 minimal essential medium (MEM) and nutrient mixture F-12 Ham (Sigma-Aldrich) with sodium bicarbonate, including 15% heat-inactivated fetal bovine serum, 1% MEM non-essential amino acids, 2 mM […], 1% penicillin-streptomycin (10,000 U/ml K1), and 0.1% fungizone (amphotericin B, […] K1) (Life Technologies). Cells were plated 1 day prior to experiments in glass-bottomed culture dishes (MatTek) at a density of 50,000 cells/14-mm dish. All samples were washed once in CO2-independent, serum- and phenol red-free medium (prepared as above but with exclusion of serum and addition of 30 mM HEPES and B12 supplement [Gibco]). All experiments with cells were performed in at least duplicates and repeated at least three times. The Aβ concentration was 500 nM in all experiments.
All uptake and colocalization experiments were carried out with the HF488-labeled Aβ peptides using a Leica SP5 confocal microscope (Leica Microsystems). For colocalization with FM 4–64 (Life Technologies), 5 μg/ml of the dye was added together with the peptide, and images were recorded after 1 hr of incubation. Both dyes were excited by the 488-nm laser line. HF488 emission was collected from 520–580 nm and FM 4–64 emission between 700–800 nm. For colocalization with LysoTracker red (Life Technologies), cells were incubated with HF488-labeled peptide for 24 hr, washed once with serum-free medium, and thereafter incubated for 1 hr with 100 nM LysoTracker red before images were recorded. LysoTracker red was excited using the […] laser line, and emission was collected between 700–800 nm. Sequential acquisition was used in all experiment to avoid bleed-through and cross-excitation. Cellular uptake at 4°C was assessed by keeping the cells in a cold room during incubation. The cells were washed prior to imaging to avoid uptake while observing the cells on the microscope.

[2] = Fluorescence lifetime imaging (FLIM) of amyloid fibril formation in vitro; assay type: physicochemical; details: for fluorescence lifetime of larger aggregates deposited on the coverslip: FLIM, 'often in the range of'; for mean fluorescence lifetime, monomeric peptide: beginning of time course / before trypsin
Description: We first examined whether a Hilyte Fluor 488 (HF488) dye attached to the N termini of Aβ(1–40) and Aβ(1–42) could act as a reporter of amyloid formation by monitoring how the fluorescence intensity of the dye changes as fibril formation occurs in vitro for each of the two Aβ isoforms. The appearance of fibrillar species was identified by means of dot blot experiments using the conformation-specific antibody LOC ([Kayed et al., 2007]), and the HF488 fluorescence intensity was measured in parallel (Figure 1A; Figure S1 available online). […] This small difference, however, could result from the fact that LOC recognizes fibrillar oligomers as well as amyloid fibrils, whereas the fluorescence quenching is likely to be associated predominately with amyloid fibrils. We also confirmed the formation of β sheet structure by measurement of circular dichroism spectra at the beginning and end of the time course of the experiment (Figure 1B). Next, we used FLIM to analyze these samples collected at the beginning and end of the time course of the experiment. The fluorescence lifetimes in each pixel of these images were obtained by fitting monoexponential decay functions to the observed time-resolved fluorescence decays, and the data and images are shown in Figures 1C and 1D.
All in vitro experiments were performed at a peptide concentration of 5 μM in 50 mM sodium phosphate buffer at pH 7.4. Aggregation kinetics were monitored by steady-state fluorescence in a FLUOstar Optima microplate reader (BMG Labtech) and sealed black Costar half-area, 96-well plates (Corning Life Sciences). Data were recorded at 5-min intervals using a 480-nm bandpass filter for excitation and a 520-nm bandpass filter for emission. Orbital shaking (300 rpm, 10 s) was carried out prior to each recording to ensure that each sample was homogenous. Sample aliquots for dot blot analysis were taken at the indicated time points and immediately flash-frozen in liquid nitrogen. These aliquots were thawed by dilution into phosphate buffer to a total volume of 25 μl and immediately blotted onto a nitrocellulose membrane using a Bio-Rad dot blot apparatus. The membrane was blocked with 5% (w/v) dry milk and 0.1% Triton X-100 in PBS and stained with LOC as the primary antibody and an Alexa Fluor 647-labeled anti-rabbit antibody as the secondary antibody (Life Technologies). The blots were imaged on a Typhoon 9400 scanner (GE Healthcare) using the 633-nm laser line for excitation. Densitometric analysis of the blots was carried out using ImageJ. ([Schneider et al., 2012]). Aβ samples for in vitro fluorescence lifetime imaging were placed in a glass-bottomed tissue culture dish (MatTek) and sealed with a coverslip and nail varnish to avoid evaporation.
All FLIM experiments were carried out using HF488-labeled Aβ peptides, and images were recorded by time-correlated single photon counting (TCSPC) using a confocal microscopy platform built on an Olympus Fluoview FV300 confocal scan unit. A pulsed supercontinuum source (SC 450, Fianium) was used for excitation, emitting a train of sub-10-picosecond pulses at 40 MHz repetition rate. The output beam was collimated and passed through a hot mirror assembly to remove infrared components at wavelengths greater than 700 nm. The visible portion of the spectrum was passed through an acousto-optic tunable filter (AOTFnC-VIS, AA Opto-Electronic) whose radio frequency modulator was driven by software developed using LabVIEW (National Instruments). The excitation wavelength was set to 480 nm. The excitation beam was reflected onto the sample with a 20/80 broad bandwidth coated beam splitter so that 20% of the excitation light passed on to the sample and 80% of the fluorescence signal was reflected toward the confocal pinhole. The fluorescence light was passed through a 515-nm Semrock long-pass filter (Laser 2000) and passed onto a fast photomultiplier tube (PMC-100, Becker & Hickl). Lifetimes were recorded using TCSPC circuitry (SPC-830, Becker & Hickl). […]

[3] = 5 μM peptide in 50 mM sodium phosphate buffer pH 7.4
[4] = 5 μM peptide in 50 mM sodium phosphate buffer pH 7.4, FLIM (TCSPC), monoexponential fit, mean ± SD

Substance | intracellular HF488 fluorescence (uptake) after 30 min [1] | intracellular localization after 24 hr [1] | cellular uptake after 10 minutes ([1]; 500 nM peptide, 10 minutes, confocal fluorescence with Z-scanning (Figure S3)) | uptake at 4°C ([1]; 500 nM peptide) | lag phase of fibril formation in vitro (decrease in fluorescence lifetime) ([2]; 5 μM peptide in 50 mM sodium phosphate buffer pH 7.4, droplet on FLIM microscope stage, sigmoidal decrease (Figure S2A)) | fluorescence lifetime of larger aggregates deposited on the coverslip [2, 3] | mean fluorescence lifetime, monomeric peptide [2, 4] [ns] | mean fluorescence lifetime, solutions containing fibrillar peptide ([2]; aggregation read-out, 5 μM peptide in 50 mM sodium phosphate buffer pH 7.4, end of time course, FLIM (TCSPC), monoexponential fit, mean ± SD) [ns]
^HF488Aβ(1–40): Synthetic 40-residue amyloid β peptide labeled at the N terminus with Hilyte Fluor 488, purchased from Anaspec | observed readily | colocalize with LysoTracker red | vesicular uptake | did not internalize any detectible quantities | approximately 2.5 hr | 2.5–3.0 ns | 3.7 ± 0.1 | –
^HF488Aβ(1–42): Synthetic 42-residue amyloid β peptide labeled at the N terminus with Hilyte Fluor 488, purchased from Anaspec | observed readily | colocalize with LysoTracker red | – | did not internalize any detectible quantities | – | 2.5–3.0 ns | 3.7 ± 0.05 | 3.3 ± 0.1
